Source: PubChem BioAssay (NCI)
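Five compound concentrations were applied to cells in 96-well plates for 48 hours; endpoints were derived by simple linear interpolation of the resulting dose-response curve. GI50 marks 50% less growth. The concentration for full growth arrest is given as TGI.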

Key:
Assay in all cases: NCI tumour cell line growth inhibition, 48 h
[1] = test system: 786-0 renal
[2] = test system: A498 renal
[3] = test system: A549 NSCLC
[4] = test system: ACHN renal
[5] = test system: BT-549 breast
[6] = test system: CAKI-1 renal
[7] = test system: CCRF-CEM leukemia
[8] = test system: COLO 205 colon
[9] = test system: DU-145 prostate
[10] = test system: EKVX NSCLC
[11] = test system: HCC-2998 colon
[12] = test system: HCT-116 colon
[13] = test system: HCT-15 colon
[14] = test system: HL-60(TB) leukemia
[15] = test system: HOP-62 NSCLC
[16] = test system: HOP-92 NSCLC
[17] = test system: HS 578T breast
[18] = test system: HT29 colon
[19] = test system: IGROV1 ovarian
[20] = test system: K-562 leukemia
[21] = test system: KM12 colon
[22] = test system: LOX IMVI melanoma
[23] = test system: M14 melanoma
[24] = test system: MALME-3M melanoma
[25] = test system: MCF7 breast
[26] = test system: MDA-MB-231 breast
[27] = test system: MDA-MB-435
[28] = test system: MDA-MB-468 breast
[29] = test system: MOLT-4 leukemia
[30] = test system: NCI-H226 lung
[31] = test system: NCI-H23 lung
[32] = test system: NCI-H460 lung
[33] = test system: NCI-H522 lung
[34] = test system: NCI/ADR-RES ovarian
[35] = test system: OVCAR-3 ovarian
[36] = test system: OVCAR-4 ovarian
[37] = test system: OVCAR-5 ovarian
[38] = test system: OVCAR-8 ovarian
[39] = test system: PC-3 prostate
[40] = test system: RPMI-8226 leukemia
[41] = test system: RXF 393 renal
[42] = test system: SF-268 CNS
[43] = test system: SF-295 CNS
[44] = test system: SF-539 CNS
[45] = test system: SK-MEL-2 melanoma
[46] = test system: SK-MEL-28 melanoma
[47] = test system: SK-MEL-5 melanoma
[48] = test system: SK-OV-3 ovarian
[49] = test system: SN12C renal
[50] = test system: SNB-19 CNS
[51] = test system: SNB-75 CNS
[52] = test system: SR leukemia
[53] = test system: SW-620 colon
[54] = test system: T-47D breast
[55] = test system: TK-10 renal
[56] = test system: U251 CNS
[57] = test system: UACC-257 melanoma
[58] = test system: UACC-62 melanoma
[59] = test system: UO-31 renal

O=C(Cc1ccc2c(c1)CN(C1CCC(=O)NC1=O)C2=O)NCCc1ccccc1 (stereo unspecified)
GI50 [1]: 0.124 µM | TGI [1]: > 100 µM | GI50 [2]: 0.297 µM | TGI [2]: 7.76 µM | GI50 [3]: 0.663 µM | TGI [3]: > 100 µM | GI50 [4]: 5.32 µM | TGI [4]: > 100 µM | GI50 [5]: 0.0192 µM | TGI [5]: 0.0755 µM | GI50 [6]: 0.276 µM | TGI [6]: > 100 µM | GI50 [7]: < 0.01 µM | GI50 [8]: 0.0438 µM | TGI [8]: 1.28 µM | GI50 [9]: 20.8 µM | TGI [9]: > 100 µM | TGI [10]: > 100 µM | GI50 [11]: 0.0451 µM | TGI [11]: 1.32 µM | GI50 [12]: 67.9 µM | TGI [12]: > 100 µM | GI50 [13]: 0.166 µM | TGI [13]: 4.75 µM | GI50 [14]: < 0.01 µM | TGI [14]: 2.19 µM | GI50 [15]: 0.0309 µM | TGI [15]: 1.32 µM | GI50 [16]: 0.0134 µM | TGI [16]: 0.146 µM | GI50 [17]: 0.0385 µM | TGI [17]: 3.1 µM | GI50 [18]: 0.53 µM | TGI [18]: > 100 µM | GI50 [19]: 0.0336 µM | TGI [19]: 1.08 µM | GI50 [20]: 0.581 µM | TGI [20]: > 100 µM | GI50 [21]: 0.276 µM | TGI [21]: > 100 µM | GI50 [22]: > 100 µM | TGI [22]: > 100 µM | GI50 [23]: 0.114 µM | TGI [23]: > 56.4 µM | GI50 [24]: 0.0135 µM | TGI [24]: 0.0746 µM | GI50 [25]: 0.2 µM | TGI [25]: > 100 µM | GI50 [26]: < 0.01 µM | TGI [26]: 0.0102 µM | GI50 [27]: 0.551 µM | TGI [27]: > 100 µM | GI50 [28]: < 0.01 µM | TGI [28]: 0.0168 µM | GI50 [29]: < 0.01 µM | TGI [29]: > 100 µM | GI50 [30]: 0.0685 µM | TGI [30]: 1.41 µM | GI50 [31]: > 60.8 µM | TGI [31]: > 100 µM | GI50 [32]: > 100 µM | TGI [32]: > 100 µM | GI50 [33]: > 20.2 µM | TGI [33]: > 100 µM | GI50 [34]: 5.94 µM | TGI [34]: > 100 µM | GI50 [35]: 2.24 µM | TGI [35]: > 100 µM | GI50 [36]: 0.436 µM | TGI [36]: > 70.9 µM | GI50 [37]: 0.145 µM | TGI [37]: 30.5 µM | GI50 [38]: 0.0323 µM | TGI [38]: > 21.4 µM | GI50 [39]: 0.0367 µM | TGI [39]: > 100 µM | GI50 [40]: 0.441 µM | TGI [40]: > 100 µM | GI50 [41]: 0.402 µM | TGI [41]: > 24.1 µM | GI50 [42]: 0.51 µM | TGI [42]: > 100 µM | GI50 [43]: 0.53 µM | TGI [43]: > 100 µM | GI50 [44]: 0.564 µM | TGI [44]: > 100 µM | GI50 [45]: 0.225 µM | TGI [45]: 1.82 µM | GI50 [46]: 0.589 µM | TGI [46]: > 100 µM | GI50 [47]: 0.156 µM | TGI [47]: 0.991 µM | GI50 [48]: 0.484 µM | TGI [48]: > 85.7 µM | GI50 [49]: 0.188 µM | TGI [49]: > 30.9 µM | GI50 [50]: 0.0767 µM | TGI [50]: > 28.7 µM | GI50 [51]: 0.042 µM | TGI [51]: 2.2 µM | GI50 [52]: > 76.5 µM | TGI [52]: > 100 µM | GI50 [53]: 0.0391 µM | TGI [53]: > 100 µM | GI50 [54]: 0.0218 µM | TGI [54]: 0.414 µM | GI50 [55]: 0.727 µM | TGI [55]: > 100 µM | GI50 [56]: > 25.1 µM | TGI [56]: > 100 µM | GI50 [57]: > 100 µM | TGI [57]: > 100 µM | GI50 [58]: 2.46 µM | TGI [58]: > 100 µM | GI50 [59]: 0.226 µM | TGI [59]: 6.27 µM
